From PubChem BioAssay (NCI)
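Where inhibition never reached the appropriate level, the endpoint shown equals the highest concentration tested. Otherwise, values were interpolated linearly from a five-concentration, 48-hour dose response in 96-well plates. Abbreviation: GI50, concentration required for 50% inhibition of growth. TGI: total growth inhibition.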

Assays:
Assay in all cases: growth of human tumour cells (NCI), 48 h
786-0 renal = system: 786-0 renal
A498 renal = system: A498 renal
A549 NSCLC = system: A549 NSCLC
ACHN renal = system: ACHN renal
CAKI-1 renal = system: CAKI-1 renal
CCRF-CEM leukemia = system: CCRF-CEM leukemia
COLO 205 colon = system: COLO 205 colon
DLD-1 colon = system: DLD-1 colon
EKVX NSCLC = system: EKVX NSCLC
HCC-2998 colon = system: HCC-2998 colon
HCT-116 colon = system: HCT-116 colon
HCT-15 colon = system: HCT-15 colon
HL-60(TB) leukemia = system: HL-60(TB) leukemia
HOP-18 NSCLC = system: HOP-18 NSCLC
HOP-62 NSCLC = system: HOP-62 NSCLC
HOP-92 NSCLC = system: HOP-92 NSCLC
HT29 colon = system: HT29 colon
IGROV1 ovarian = system: IGROV1 ovarian
K-562 leukemia = system: K-562 leukemia
KM12 colon = system: KM12 colon
KM20L2 colon = system: KM20L2 colon
LOX IMVI melanoma = system: LOX IMVI melanoma
LXFL 529 NSCLC = system: LXFL 529 NSCLC
M14 melanoma = system: M14 melanoma
M19-MEL melanoma = system: M19-MEL melanoma
MALME-3M melanoma = system: MALME-3M melanoma
MOLT-4 leukemia = system: MOLT-4 leukemia
NCI-H226 lung = system: NCI-H226 lung
NCI-H23 lung = system: NCI-H23 lung
NCI-H460 lung = system: NCI-H460 lung
NCI-H522 lung = system: NCI-H522 lung
OVCAR-3 ovarian = system: OVCAR-3 ovarian
OVCAR-4 ovarian = system: OVCAR-4 ovarian
OVCAR-5 ovarian = system: OVCAR-5 ovarian
OVCAR-8 ovarian = system: OVCAR-8 ovarian
RPMI-8226 leukemia = system: RPMI-8226 leukemia
RXF 393 renal = system: RXF 393 renal
SF-268 CNS = system: SF-268 CNS
SF-295 CNS = system: SF-295 CNS
SF-539 CNS = system: SF-539 CNS
SK-MEL-2 melanoma = system: SK-MEL-2 melanoma
SK-MEL-28 melanoma = system: SK-MEL-28 melanoma
SK-MEL-5 melanoma = system: SK-MEL-5 melanoma
SK-OV-3 ovarian = system: SK-OV-3 ovarian
SN12C renal = system: SN12C renal
SNB-19 CNS = system: SNB-19 CNS
SNB-75 CNS = system: SNB-75 CNS
SNB-78 CNS = system: SNB-78 CNS
SW-620 colon = system: SW-620 colon
TK-10 renal = system: TK-10 renal
U251 CNS = system: U251 CNS
UACC-257 melanoma = system: UACC-257 melanoma
UACC-62 melanoma = system: UACC-62 melanoma
UO-31 renal = system: UO-31 renal

Q: With `NC1CCCCC1N.O=[Se]([O-])[O-].[Pt+4]` (configuration not stated) as the molecule, how does the GI50 (786-0 renal) read?
A: 0.0552 µM

Q: What about the TGI (786-0 renal) of the same molecule?
A: 20.3 µM

Q: And the GI50 (A498 renal)?
A: 1.76 µM

Q: What about the TGI (A498 renal) of the same molecule?
A: 24.8 µM

Q: And the GI50 (A549 NSCLC)?
A: 0.48 µM

Q: What about the TGI (A549 NSCLC) of the same molecule?
A: > 61.8 µM

Q: What about the GI50 (ACHN renal) of the same molecule?
A: 0.653 µM

Q: And the TGI (ACHN renal)?
A: > 52.4 µM

Q: What about the GI50 (CAKI-1 renal) of the same molecule?
A: 1.08 µM

Q: And the TGI (CAKI-1 renal)?
A: 45.3 µM

Q: And the GI50 (CCRF-CEM leukemia)?
A: 0.203 µM

Q: And the TGI (CCRF-CEM leukemia)?
A: 97.7 µM

Q: What about the GI50 (COLO 205 colon) of the same molecule?
A: 1.19 µM

Q: And the TGI (COLO 205 colon)?
A: 17.5 µM

Q: And the GI50 (DLD-1 colon)?
A: 1.81 µM

Q: And the TGI (DLD-1 colon)?
A: > 83.8 µM

Q: And the GI50 (EKVX NSCLC)?
A: > 35.2 µM

Q: What about the TGI (EKVX NSCLC) of the same molecule?
A: > 100 µM

Q: What about the GI50 (HCC-2998 colon) of the same molecule?
A: 2.98 µM

Q: And the TGI (HCC-2998 colon)?
A: 11.1 µM

Q: What about the GI50 (HCT-116 colon) of the same molecule?
A: 0.236 µM

Q: What about the TGI (HCT-116 colon) of the same molecule?
A: > 45.2 µM

Q: And the GI50 (HCT-15 colon)?
A: 0.747 µM

Q: And the TGI (HCT-15 colon)?
A: > 45.5 µM

Q: And the GI50 (HL-60(TB) leukemia)?
A: 0.315 µM

Q: What about the TGI (HL-60(TB) leukemia) of the same molecule?
A: > 28.9 µM

Q: And the GI50 (HOP-18 NSCLC)?
A: 27 µM

Q: What about the TGI (HOP-18 NSCLC) of the same molecule?
A: > 100 µM

Q: What about the GI50 (HOP-62 NSCLC) of the same molecule?
A: 2.52 µM

Q: What about the TGI (HOP-62 NSCLC) of the same molecule?
A: > 51.4 µM

Q: And the GI50 (HOP-92 NSCLC)?
A: 25.3 µM

Q: What about the TGI (HOP-92 NSCLC) of the same molecule?
A: 82.1 µM

Q: What about the GI50 (HT29 colon) of the same molecule?
A: 0.169 µM

Q: What about the TGI (HT29 colon) of the same molecule?
A: 17.5 µM

Q: What about the GI50 (IGROV1 ovarian) of the same molecule?
A: 2.11 µM

Q: What about the TGI (IGROV1 ovarian) of the same molecule?
A: > 46 µM

Q: What about the GI50 (K-562 leukemia) of the same molecule?
A: 0.413 µM

Q: And the TGI (K-562 leukemia)?
A: > 49.8 µM

Q: And the GI50 (KM12 colon)?
A: 2.51 µM

Q: And the TGI (KM12 colon)?
A: > 100 µM

Q: And the GI50 (KM20L2 colon)?
A: 0.233 µM

Q: What about the TGI (KM20L2 colon) of the same molecule?
A: 26.9 µM

Q: And the GI50 (LOX IMVI melanoma)?
A: 0.677 µM

Q: And the TGI (LOX IMVI melanoma)?
A: > 100 µM

Q: And the GI50 (LXFL 529 NSCLC)?
A: 6.25 µM

Q: What about the TGI (LXFL 529 NSCLC) of the same molecule?
A: > 100 µM

Q: And the GI50 (M14 melanoma)?
A: 2.51 µM

Q: And the TGI (M14 melanoma)?
A: > 52.2 µM

Q: And the GI50 (M19-MEL melanoma)?
A: 0.412 µM

Q: What about the TGI (M19-MEL melanoma) of the same molecule?
A: 15.5 µM

Q: And the GI50 (MALME-3M melanoma)?
A: 0.986 µM

Q: What about the TGI (MALME-3M melanoma) of the same molecule?
A: 5.26 µM

Q: And the GI50 (MOLT-4 leukemia)?
A: 0.0775 µM

Q: What about the TGI (MOLT-4 leukemia) of the same molecule?
A: > 100 µM

Q: What about the GI50 (NCI-H226 lung) of the same molecule?
A: 6.42 µM

Q: What about the TGI (NCI-H226 lung) of the same molecule?
A: 29.3 µM

Q: And the GI50 (NCI-H23 lung)?
A: 1.51 µM

Q: What about the TGI (NCI-H23 lung) of the same molecule?
A: 17.1 µM

Q: And the GI50 (NCI-H460 lung)?
A: 0.205 µM

Q: And the TGI (NCI-H460 lung)?
A: 5.15 µM

Q: And the GI50 (NCI-H522 lung)?
A: 0.589 µM

Q: What about the TGI (NCI-H522 lung) of the same molecule?
A: 11.2 µM

Q: And the GI50 (OVCAR-3 ovarian)?
A: 17 µM

Q: What about the TGI (OVCAR-3 ovarian) of the same molecule?
A: > 100 µM

Q: And the GI50 (OVCAR-4 ovarian)?
A: 2.63 µM

Q: And the TGI (OVCAR-4 ovarian)?
A: > 100 µM

Q: And the GI50 (OVCAR-5 ovarian)?
A: 1.83 µM

Q: What about the TGI (OVCAR-5 ovarian) of the same molecule?
A: 27.9 µM

Q: What about the GI50 (OVCAR-8 ovarian) of the same molecule?
A: 0.922 µM

Q: And the TGI (OVCAR-8 ovarian)?
A: > 100 µM

Q: And the GI50 (RPMI-8226 leukemia)?
A: < 0.0336 µM

Q: What about the TGI (RPMI-8226 leukemia) of the same molecule?
A: > 37.1 µM

Q: What about the GI50 (RXF 393 renal) of the same molecule?
A: 7.33 µM

Q: And the TGI (RXF 393 renal)?
A: 57.1 µM

Q: What about the GI50 (SF-268 CNS) of the same molecule?
A: 0.549 µM

Q: What about the TGI (SF-268 CNS) of the same molecule?
A: > 76.8 µM

Q: What about the GI50 (SF-295 CNS) of the same molecule?
A: 0.304 µM

Q: What about the TGI (SF-295 CNS) of the same molecule?
A: 21.6 µM

Q: And the GI50 (SF-539 CNS)?
A: 1.18 µM

Q: What about the TGI (SF-539 CNS) of the same molecule?
A: 20.6 µM

Q: What about the GI50 (SK-MEL-2 melanoma) of the same molecule?
A: 6 µM

Q: What about the TGI (SK-MEL-2 melanoma) of the same molecule?
A: 31.1 µM

Q: What about the GI50 (SK-MEL-28 melanoma) of the same molecule?
A: 2.01 µM

Q: What about the TGI (SK-MEL-28 melanoma) of the same molecule?
A: 32.9 µM

Q: And the GI50 (SK-MEL-5 melanoma)?
A: 0.713 µM

Q: What about the GI50 (SK-OV-3 ovarian) of the same molecule?
A: 27.8 µM

Q: And the TGI (SK-OV-3 ovarian)?
A: > 100 µM

Q: What about the GI50 (SN12C renal) of the same molecule?
A: 1.67 µM

Q: And the TGI (SN12C renal)?
A: > 100 µM

Q: What about the GI50 (SNB-19 CNS) of the same molecule?
A: 1.32 µM

Q: What about the TGI (SNB-19 CNS) of the same molecule?
A: > 100 µM

Q: What about the GI50 (SNB-75 CNS) of the same molecule?
A: 66.3 µM

Q: And the TGI (SNB-75 CNS)?
A: > 100 µM

Q: What about the GI50 (SNB-78 CNS) of the same molecule?
A: 69.8 µM

Q: And the TGI (SNB-78 CNS)?
A: > 100 µM

Q: What about the GI50 (SW-620 colon) of the same molecule?
A: 0.0901 µM

Q: What about the TGI (SW-620 colon) of the same molecule?
A: > 39.9 µM

Q: And the GI50 (TK-10 renal)?
A: 28.4 µM

Q: What about the TGI (TK-10 renal) of the same molecule?
A: > 100 µM

Q: And the GI50 (U251 CNS)?
A: 0.666 µM

Q: What about the TGI (U251 CNS) of the same molecule?
A: 15.7 µM

Q: And the GI50 (UACC-257 melanoma)?
A: 2.18 µM

Q: And the TGI (UACC-257 melanoma)?
A: > 64.8 µM

Q: And the GI50 (UACC-62 melanoma)?
A: 1.33 µM

Q: And the TGI (UACC-62 melanoma)?
A: > 41.8 µM

Q: What about the GI50 (UO-31 renal) of the same molecule?
A: 1.05 µM

Q: And the TGI (UO-31 renal)?
A: 16.7 µM
